# Results as given in patent publication US4218566A, “11-(2-Hydroxyethylthio) prostenoic acid E and F series derivatives” (American Cyanamid Company, priority 1978, dated 1980).
# Like-named read-outs stand apart in the source and are kept apart here.
# Columns and labels:
# Assay type in all cases: in vivo
# [1] = tested on: bronchospasms elicited by acetylcholine; test: bronchodilator activity, (modified) guinea pig Konzett procedure, acetylcholine-induced bronchospasm; conditions: Cavia porcellus, iv
# Experimental: (§1) Bronchodilator activity is determined in guinea pigs against bronchospasms elicited by intravenous injections of 5-hydroxytryptamine, histamine of acetylcholine by the Konzett procedure. [See J. Lulling, P. Lievens, F. El Sayed and J. Prignot, Arzneimittel-Forschung, 18, 995 (1968)].
# (§2) In the Table I which follows, bronchodilator activity for representative compounds of this invention against one or more of the three spasmogenic agents is expressed as an ED50 determined from the results obtained with three logarithemic cumulative intravenous doses.
# (§3) The compounds dl-methyl ester of 11-deoxy-11α-(2-hydroxyethylthio)-15α-prostaglandin E2 (hereinafter called Compound I) and dl-methyl ester of 11-deoxy-11α-(2-hydroxyethoxy)-15α-prostaglandin E2 (hereinafter called Compound II) were submitted for testing in the modified Konzett procedure [J. Lulling, P. Lievens, F. El Sayed and J. Prignot, Arzneimittel-Forschung, 18, 995 (1968)].
# (§4) The Modified Guinea Pig Konzett Assay measures the protective effects of experimental compounds against induced bronchospasms in guinea pigs.
# (§5) Guinea pigs of either sex, weighing 300 to 500 g. are anesthetized by intraperitoneal injection of urethane at 1.5 g./kg. and curarized by intravenous injection of gallamine at 4 mg./kg. They are artificially ventilated through a tracheal cannula. Respiratory volume is adjusted according to the weight of the animal and the rate of the pump, in such a way as to obtain an insufflation pressure of 15-30 cm. of water.
# (§6) The two jugular veins are catheterized, the first one being used for curarization and administration of the test compounds, the other one is used for the injection of the spasmogenic agent. Injections are made at selected speeds with a perfusion pump. The intratracheal pressure is measured with a transducer connected to the tracheal cannula and recorded on a polygraph.
# (§7) Bronchial spasms are produced by intravenous injection of acetylcholine hydrochloride, histamine dihydrochloride or 5-hydroxy-tryptamine creatinine sulfate. The speed of injection of the spasmogenic solution and its concentration are chosen to give a dose (kept constant throughout the test) which is able to produce a consistant increase in the tracheal pressure. The injections are repeated every 5 minutes throughout the entire test by means of a program controlled automatic infusion syringe. When three successive control bronchoconstrictions of similar intensity are obtained, the animal is considered to be ready for the assay and receives the first dose of the test compound approximately two minutes later.
# (§8) The compound being tested is suspended in 15% ethanol and injected through the jugular vein. The injection is repeated twice per animal at 15 minute intervals, so that three doses, in logarithmic progression, are assayed. Three spasms are recorded for each dose. The "bronchodilating" activity of each compound is assayed in at least four guinea pigs for each of the three spasmogenic substances. The amplitude of the three spasms (i.e. the difference between the maximum total tracheal pressure during the spasms and the normal insufflation pressure without spasm) following the administration of the drug are expressed in cm. of water.
# (§9) When the average percent of variation (treated vs. control) of the first spasm following any dose of the compound reaches at least -50%, a regression line of the percent of variation versus the dose is computed in a semi-logarithmic system. The ED50 (dose producing a -50% variation) is then calculated. The same determination is made for the second and third spasm following the administration of a dose of the test compound if at some dose the variation percent reaches -50%.
# [2] = tested on: bronchospasms elicited by histamine; test: bronchodilator activity, (modified) guinea pig Konzett procedure, histamine-induced bronchospasm; conditions: Cavia porcellus, iv
# Experimental: as §1, §2, §3, §4, §5, §6, §7, §8, §9
# [3] = tested on: bronchospasms elicited by 5-hydroxytryptamine; test: bronchodilator activity, (modified) guinea pig Konzett procedure, 5-hydroxytryptamine-induced bronchospasm; conditions: Cavia porcellus, iv
# Experimental: as §1, §2, §3, §4, §5, §6, §7, §8, §9
# [4] = tested on: bronchospasms; test: bronchodilator activity overall, guinea pig Konzett assay; conditions: for Potency (Range 0-4): score
# Experimental: The natural PGE1, PGE2 and PGE3 compounds are potent in causing multiple biological responses, even at low doses. As a bronchodilator, the natural prostaglandins have an inconveniently short duration of activity.
# as §1, §2, §3, §4, §5, §6, §7, §8, §9
# [5] = spasm 1, read-out: ED50 vs. Acetylcholine Hydrochloride
# [6] = spasm 2, read-out: ED50 vs. Acetylcholine Hydrochloride
# [7] = spasm 1, read-out: ED50 vs. Histamine Dihydrochloride
# [8] = spasm 2, read-out: ED50 vs. Histamine Dihydrochloride
# [9] = spasm 3, read-out: ED50 vs. Histamine Dihydrochloride
# [10] = spasm 1, read-out: ED50 vs. 5-Hydroxytryptamine Creatinine Sulfate
# [11] = spasm 2, read-out: ED50 vs. 5-Hydroxytryptamine Creatinine Sulfate
# [12] = spasm 3, read-out: ED50 vs. 5-Hydroxytryptamine Creatinine Sulfate
# [13] = acetylcholine, first line of values for the compound, read-out: ED50 ACH.
# [14] = acetylcholine, second line of values for the compound, read-out: ED50 ACH.
# [15] = histamine, first line of values for the compound, read-out: ED50 HIST.
# [16] = histamine, second line of values for the compound, read-out: ED50 HIST.
# [17] = 5-HT, first line of values for the compound, read-out: ED50 5-HT
# [18] = 5-HT, second line of values for the compound, read-out: ED50 5-HT
# [19] = 5-HT, third line of values for the compound, read-out: ED50 5-HT
Compound,"ED50 [1, 5] [mg/kg]","ED50 [1, 6] [mg/kg]","ED50 [2, 7] [mg/kg]","ED50 [2, 8] [mg/kg]","ED50 [2, 9] [mg/kg]","ED50 [3, 10] [mg/kg]","ED50 [3, 11] [mg/kg]","ED50 [3, 12] [mg/kg]","bronchodilator potency of Compound I compared with Compound II, statistical analysis ([4]; Compound I vs Compound II)","ED50 [1, 13] [mg/kg]","ED50 [1, 14] [mg/kg]","ED50 [2, 15] [mg/kg]","ED50 [2, 16] [mg/kg]","ED50 [3, 17] [mg/kg]",Potency (Range 0-4) [4],"ED50 [3, 18] [mg/kg]","ED50 [3, 19] [mg/kg]","ED50 ([1]; acetylcholine, third line of values for the compound, read-out: ED50 ACH.) [mg/kg]","ED50 ([2]; histamine, third line of values for the compound, read-out: ED50 HIST.) [mg/kg]"
"CCCCC[C@H](O)/C=C/[C@H]1[C@H](SCCO)CC(=O)[C@@H]1C/C=C\CCCC(=O)OC (relative stereo) [Compound I, dl-methyl ester of 11-deoxy-11α-(2-hydroxyethylthio)-15α-prostaglandin E2]",0.033,0.289,0.0157,0.0671,0.452,0.0176,0.0629,0.153,significantly more potent than Compound II as a bronchodilator,,,,,,,,,,
"CCCCC[C@H](O)/C=C/[C@H]1[C@H](OCCO)CC(=O)[C@@H]1C/C=C\CCCC(=O)OC (relative stereo) [Compound II, dl-methyl ester of 11-deoxy-11α-(2-hydroxyethoxy)-15α-prostaglandin E2, reference compound]",0.506,3.31,0.152,0.707,1.46,0.119,0.495,1.28,,,,,,,,,,,
"CCCCC[C@H](O)/C=C/[C@H]1C(SCCO)CC(=O)[C@@H]1C/C=C\CCCC(=O)OC (stereo partly drawn) [Example 223, Methyl Nat. 15α-hydroxy-9-oxo-11α/β(2-hydroxyethylthio)-5-cis,13-trans-prostadienoate]",,,,,,,,,,0.0275,0.391,0.00424,0.0442,0.0088,4,,,,
"CCCCC(C)(O)C/C=C/C1C(SCCO)CC(=O)C1C/C=C\CCCC(=O)O (stereo not drawn) [Example 225, 11α/β-(2-hydroxyethylthio)-16-hydroxy-16-methyl-9-oxo-5-cis,13-trans-prostadienoic acid]",,,,,,,,,,0.034,,0.02,0.108,0.017,3,0.077,0.257,,
"CCCCC(O)C/C=C/C1C(SCCO)CC(=O)C1CCCCCCC(=O)O (stereo not drawn) [Example 226, 11α/β(2-hydroxyethylthio)-16-hydroxy-9-oxo-13-trans-prostenoic acid]",,,,,,,,,,0.053,,0.0195,0.15,0.019,3,0.082,0.288,,
"CCCCC[C@H](O)/C=C/[C@H]1C(SCCO)CC(=O)[C@@H]1CCCCCCC(=O)O (stereo partly drawn) [Example 228, Nat. 11α/β-(2-hydroxyethylthio)-15α-hydroxy-9-oxo-13-transprostenoic acid]",,,,,,,,,,0.011,0.061,0.0047,0.036,0.0055,4,0.034,0.078,0.221,0.071
"CCCCC[C@H](O)/C=C/[C@H]1[C@H](SCCO)CC(=O)[C@@H]1C/C=C\CCCC(=O)OC [Methyl Nat.-11α-(2-hydroxyethylthio)-15α-hydroxy-9-oxo-5-cis,13-trans-prostadienoate]",,,,,,,,,,0.0111,,0.00487,,0.0059,4,0.035,,,
"CCCCC[C@H](O)/C=C/[C@H]1[C@@H](SCCO)CC(=O)[C@@H]1C/C=C\CCCC(=O)OC [methyl nat.-11β(2-hydroxyethylthio)-15α-hydroxy-9-oxo-5-cis,13-trans prostadienoate]",,,,,,,,,,0.0628,0.671,0.0455,,0.06,4,,,,
